# Measurements as given in patent US20080188528A1, “Modulators of C3a receptor and methods of use thereof” (priority 2006, published 2008).
# Where a name gives a salt, the structure may show the parent alone.
# Target: T1, human C3a receptor (C3aR) (Homo sapiens, UniProt Q16581)
# T1 construct: expressed in transfected cells
# T1 sequence (Q16581 1-482): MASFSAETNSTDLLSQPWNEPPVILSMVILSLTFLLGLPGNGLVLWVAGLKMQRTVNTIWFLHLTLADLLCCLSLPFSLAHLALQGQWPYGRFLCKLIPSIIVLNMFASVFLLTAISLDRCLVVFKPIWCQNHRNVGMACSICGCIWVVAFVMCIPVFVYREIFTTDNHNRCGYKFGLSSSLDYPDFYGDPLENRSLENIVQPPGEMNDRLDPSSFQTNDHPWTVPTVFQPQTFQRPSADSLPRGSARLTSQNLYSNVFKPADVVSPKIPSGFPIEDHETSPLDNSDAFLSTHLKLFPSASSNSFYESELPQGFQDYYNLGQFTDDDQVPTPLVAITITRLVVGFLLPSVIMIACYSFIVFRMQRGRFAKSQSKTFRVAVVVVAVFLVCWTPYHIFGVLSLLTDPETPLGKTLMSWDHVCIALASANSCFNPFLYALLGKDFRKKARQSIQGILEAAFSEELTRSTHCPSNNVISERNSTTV
# Assay: Inhibition of human [125I]-C3a binding to human C3a receptor (SPA, membranes of HEK293 cells expressing recombinant C3aR)
# Settings: 0.1 nM [125I]-C3a, 3 hours at room temperature; Table 1
# Description: Inhibition of human [^125I]-C3a binding to human C3a receptor
# Binding of human [^125I]-C3a to human C3a receptor (C3aR) was done using cell membranes from HEK293 cells stably expressing recombinant C3aR, in a homogeneous scintillation proximity assay (SPA). The C3aR cell membranes were pre-coupled over-night at 4° C. to WGA-PVT SPA beads (Amersham) at a ratio of 10 μg cell membrane to 0.5 mg beads/assay. Assay was performed in 96-well microtiter Optiplates (Packard) by mixing coupled beads and 0.1 nM [^125I]-C3a (2200 Ci/mmol, Perkin Elmer Life Sciences), in a total volume of […] binding buffer (20 mM HEPES, pH 7.4, 125 mM NaCl, 5 mM KCl, 1 mM CaCl2, 1 mM MgCl2, 0.25% BSA, 0.2% CHAPS). Test compounds were diluted in DMSO and were tested for their inhibitory potential in the assay (final concentration≦1% DMSO). Incubation was done for 3 hours at room temperature followed by reading in a TopCount scintillation microplate reader. Non-specific binding was determined by adding 1 μM unlabeled C3a (Calbiochem) to the assay mixture. Calculation of the IC50 was done as above using a nonlinear least square fitting program, with Graphpad Prism.
row,SMILES,IC50 [nM]
1,"N=C(N)NCCC[C@H](NC(=O)c1cccn(Cc2ccccc2)c1=O)C(=O)O [Compound 1, (2S)-2-{[(1-benzyl-2-oxo-1,2-dihydropyridin-3-yl)carbonyl]amino}-5-carbamimidamidopentanoic acid•TFA]",50 to 500
2,"N=C(N)NCCC[C@@H](NC(=O)c1cccn(Cc2ccccc2)c1=O)C(=O)O [Compound 2, (2R)-2-{[(1-benzyl-2-oxo-1,2-dihydropyridin-3-yl)carbonyl]amino}-5-carbamimidamidopentanoic acid•TFA]",500 to 20000
3,"CC(C)c1ccccc1Cn1cccc(C(=O)N[C@@H](CCCNC(=N)N)C(=O)O)c1=O [Compound 6, (2S)-5-carbamimidamido-2-({[1-(2-isopropylbenzyl)-2-oxo-1,2-dihydropyridin-3-yl]carbonyl}amino)pentanoic acid•TFA]",50 to 500
4,"CC(C)c1cccc(Cn2cccc(C(=O)N[C@@H](CCCNC(=N)N)C(=O)O)c2=O)c1 [Compound 7, (2S)-5-carbamimidamido-2-({[1-(3-isopropylbenzyl)-2-oxo-1,2-dihydropyridin-3-yl]carbonyl}amino)pentanoic acid•TFA]",50 to 500
5,"Cn1cccc(C(=O)N[C@@H](CCCNC(=N)N)C(=O)O)c1=O [Compound 9, (2S)-5-carbamimidamido-2-{[(1-methyl-2-oxo-1,2-dihydropyridin-3-yl)carbonyl]amino}pentanoic acid•TFA]",500 to 20000
6,"N=C(N)NCCC[C@H](NC(=O)c1cccn(C2c3ccccc3-c3ccccc32)c1=O)C(=O)O [Compound 10, (2S)-5-carbamimidamido-2-({[1-(9H-fluoren-9-yl)-2-oxo-1,2-dihydropyridin-3-yl]carbonyl}amino)pentanoic acid•TFA]",50 to 500
7,"N=C(N)NCCC[C@H](NC(=O)c1cccn(Cc2ccc3ccccc3n2)c1=O)C(=O)O [Compound 15, (2S)-5-carbamimidamido-2-({[2-oxo-1-(quinolin-2-ylmethyl)-1,2-dihydropyridin-3-yl]carbonyl}amino)pentanoic acid•TFA]",50 to 500
8,"CC1(C)CCC(C)(C)c2cc(Cn3cccc(C(=O)N[C@@H](CCCNC(=N)N)C(=O)O)c3=O)ccc21 [Compound 16, (2S)-5-carbamimidamido-2-[({2-oxo-1-[(5,5,8,8-tetramethyl-5,6,7,8-tetrahydro-2-naphthyl)methyl]-1,2-dihydropyridin-3-yl}carbonyl)amino]pentanoic acid•TFA]",500 to 20000
9,"COc1cc2ccccc2cc1Cn1cccc(C(=O)N[C@@H](CCCNC(=N)N)C(=O)O)c1=O [Compound 18, (2S)-5-carbamimidamido-2-[({1-[(3-methoxy-2-naphthyl)methyl]-2-oxo-1,2-dihydropyridin-3-yl}carbonyl)amino]pentanoic acid•TFA]",50 to 500
10,"COc1ccc2cc(Cn3cccc(C(=O)N[C@@H](CCCNC(=N)N)C(=O)O)c3=O)ccc2c1 [Compound 19, (2S)-5-carbamimidamido-2-[({1-[(6-methoxy-2-naphthyl)methyl]-2-oxo-1,2-dihydropyridin-3-yl}carbonyl)amino]pentanoic acid•TFA]",50 to 500
11,"N=C(N)NCCC[C@H](NC(=O)c1cccn(Cc2cccc(-c3ccccc3)c2)c1=O)C(=O)O [Compound 21, (2S)-2-({[1-(biphenyl-3-ylmethyl)-2-oxo-1,2-dihydropyridin-3-yl]carbonyl}amino)-5-carbamimidamidopentanoic acid•TFA]",50 to 500
12,"N=C(N)NCCC[C@H](NC(=O)c1cccn(Cc2ccccc2Cc2ccccc2)c1=O)C(=O)O [Compound 23, (2S)-2-({[1-(2-benzylbenzyl)-2-oxo-1,2-dihydropyridin-3-yl]carbonyl}amino)-5-carbamimidamidopentanoic acid•TFA]",< 50
13,"N=C(N)NCCC[C@H](NC(=O)c1cccn(Cc2cccc(Cc3ccccc3)c2)c1=O)C(=O)O [Compound 24, (2S)-2-({[1-(3-benzylbenzyl)-2-oxo-1,2-dihydropyridin-3-yl]carbonyl}amino)-5-carbamimidamidopentanoic acid•TFA]",50 to 500
14,"N=C(N)NCCC[C@H](NC(=O)c1cccn(Cc2ccc(Cc3ccccc3)cc2)c1=O)C(=O)O [Compound 25, (2S)-2-({[1-(4-benzylbenzyl)-2-oxo-1,2-dihydropyridin-3-yl]carbonyl}amino)-5-carbamimidamidopentanoic acid•TFA]",50 to 500
15,"N=C(N)NCCC[C@H](NC(=O)c1cccn(Cc2ccccc2-c2cccc3ccccc23)c1=O)C(=O)O [Compound 26, (2S)-5-carbamimidamido-2-[({1-[2-(1-naphthyl)benzyl]-2-oxo-1,2-dihydropyridin-3-yl}carbonyl)amino]pentanoic acid•TFA]",< 50
16,"N=C(N)NCCC[C@H](NC(=O)c1cccn(Cc2ccccc2-c2ccc3ccccc3c2)c1=O)C(=O)O [Compound 27, (2S)-5-carbamimidamido-2-[({1-[2-(2-naphthyl)benzyl]-2-oxo-1,2-dihydropyridin-3-yl}carbonyl)amino]pentanoic acid•TFA]",< 50
17,"CC(C)c1ccccc1-c1ccccc1Cn1cccc(C(=O)N[C@@H](CCCNC(=N)N)C(=O)O)c1=O [Compound 28, (2S)-5-carbamimidamido-2-[({1-[(2′-isopropylbiphenyl-2-yl)methyl]-2-oxo-1,2-dihydropyridin-3-yl}carbonyl)amino]pentanoic acid•TFA]",< 50

# The remaining lines, values ahead:
row,IC50 [nM],SMILES
1,< 50,"N=C(N)NCCC[C@H](NC(=O)c1cccn(Cc2ccccc2Br)c1=O)C(=O)O [Compound 3, (2S)-2-({[1-(2-bromobenzyl)-2-oxo-1,2-dihydropyridin-3-yl]carbonyl}amino)-5-carbamimidamidopentanoic acid•TFA]"
2,< 50,"N=C(N)NCCC[C@H](NC(=O)c1cccn(Cc2cccc(Br)c2)c1=O)C(=O)O [Compound 4, (2S)-2-({[1-(3-bromobenzyl)-2-oxo-1,2-dihydropyridin-3-yl]carbonyl}amino)-5-carbamimidamidopentanoic acid•TFA]"
3,< 50,"N=C(N)NCCC[C@H](NC(=O)c1cccn(Cc2ccc(Br)cc2)c1=O)C(=O)O [Compound 5, (2S)-2-({[1-(4-bromobenzyl)-2-oxo-1,2-dihydropyridin-3-yl]carbonyl}amino)-5-carbamimidamidopentanoic acid•TFA]"
4,< 50,CC(C)c1ccc(Cn2cccc(C(=O)N[C@@H](CCCNC(=N)N)C(=O)O)c2=O)cc1 [Compound 8]
5,< 50,"N=C(N)NCCC[C@H](NC(=O)c1cccn(CC(c2ccccc2)c2ccccc2)c1=O)C(=O)O [Compound 11, (2S)-5-carbamimidamido-2-({[1-(2,2-diphenylethyl)-2-oxo-1,2-dihydropyridin-3-yl]carbonyl}amino)pentanoic acid•TFA]"
6,< 50,"N=C(N)NCCC[C@H](NC(=O)c1cccn(CCC(c2ccccc2)c2ccccc2)c1=O)C(=O)O [Compound 12, (2S)-5-carbamimidamido-2-({[1-(3,3-diphenylpropyl)-2-oxo-1,2-dihydropyridin-3-yl]carbonyl}amino)pentanoic acid•TFA]"
7,< 50,"N=C(N)NCCC[C@H](NC(=O)c1cccn(Cc2ccc3ccccc3c2)c1=O)C(=O)O [Compound 13, (2S)-5-carbamimidamido-2-({[1-(2-naphthylmethyl)-2-oxo-1,2-dihydropyridin-3-yl]carbonyl}amino)pentanoic acid•TFA]"
8,< 50,"N=C(N)NCCC[C@H](NC(=O)c1cccn(Cc2cccc3ccccc23)c1=O)C(=O)O [Compound 14, (2S)-5-carbamimidamido-2-({[1-(1-naphthylmethyl)-2-oxo-1,2-dihydropyridin-3-yl]carbonyl}amino)pentanoic acid•TFA]"
9,< 50,"N=C(N)NCCC[C@H](NC(=O)c1cccn(Cc2ccc3cc(F)ccc3c2)c1=O)C(=O)O [Compound 17, (2S)-5-carbamimidamido-2-[({1-[(6-fluoro-2-naphthyl)methyl]-2-oxo-1,2-dihydropyridin-3-yl}carbonyl)amino]pentanoic acid•TFA]"
10,< 50,"N=C(N)NCCC[C@H](NC(=O)c1cccn(Cc2ccccc2-c2ccccc2)c1=O)C(=O)O [Compound 20, (2S)-2-({[1-(biphenyl-2-ylmethyl)-2-oxo-1,2-dihydropyridin-3-yl]carbonyl}amino)-5-carbamimidamidopentanoic acid•TFA]"
11,< 50,"N=C(N)NCCC[C@H](NC(=O)c1cccn(Cc2ccc(-c3ccccc3)cc2)c1=O)C(=O)O [Compound 22, (2S)-2-({[1-(biphenyl-4-ylmethyl)-2-oxo-1,2-dihydropylidin-3-yl]carbonyl}amino)-5-carbamimidamidopentanoic acid]"
